Marks after values point to notes of the source that are not given here.
Tested on: rumen fluid

Supplemental Methionine Recovered: 12.25^c %
SMILES: CSCCC(N)C(=O)O (centres unmarked) [D, L Met, D,L Methionine]
MOEFF (microbial efficiency) (continuous culture fermenters, .045 g/d supplement with 45 g/d soyhulls): 9.11 grams of bacterial nitrogen per kilogram organic matter fermented
